As usually defined, the inhibition is the percentage by which the read-out fell short of the control.

The values below come from patent publication US8030298B2, “17β-HSD1 and STS inhibitors” (Abbott Products GmbH, priority 2005, dated 2011).

The structures appear in SMILES notation.

This test has as its target T1, recombinant human 17β-hydroxysteroid dehydrogenase type 1 (Homo sapiens, UniProt P14061).
T1 construct: made in house; host or cells: Sf9 insect cells (baculovirus, Bac to Bac Expression System)
T1 sequence (P14061 1-328): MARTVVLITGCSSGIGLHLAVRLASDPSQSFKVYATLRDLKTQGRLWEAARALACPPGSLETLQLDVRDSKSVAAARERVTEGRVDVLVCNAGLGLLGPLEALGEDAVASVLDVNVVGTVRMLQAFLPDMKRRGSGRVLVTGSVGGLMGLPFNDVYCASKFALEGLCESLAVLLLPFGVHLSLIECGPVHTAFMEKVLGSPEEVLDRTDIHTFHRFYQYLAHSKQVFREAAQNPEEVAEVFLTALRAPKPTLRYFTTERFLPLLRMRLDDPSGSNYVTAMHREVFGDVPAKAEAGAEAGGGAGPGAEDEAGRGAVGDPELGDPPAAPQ
Description: Inhibition of recombinant human 17β-hydroxysteroid dehydrogenase type 1 (3H-estrone to estradiol conversion, HPLC). The test is classed as biochemical. Conditions: read-out: Inhibition of rec. 17β-HSD1 (% inhibition); for inhibition at 0.1 µM: inhibitor concentration 100 nM; for inhibition at 1 µM: 0.5 h, inhibitor concentration 1 μm. On the procedure:
17β-HSD1 purification: Recombinant baculovirus was generated by the “Bac to Bac Expression System” (Invitrogen). Recombinant bacmid was transfected to Sf9 insect cells using “Cellfectin Reagent” (Invitrogen). 60 h later cells were harvested; the microsomal fraction was isolated as described by Puranen et al. (1994). Aliquots were stored frozen until determination of enzymatic activity.
Assay—Inhibition of recombinant human 17β-hydroxysteroid dehydrogenase type 1: Recombinant protein (0.1 μg/ml) was incubated in 20 mM KH2PO4 pH 7.4 with 30 nM 3H-estrone and 1 mM NADPH for 30 min at RT, in the presence of potential inhibitors at concentrations of 1 μM or 0.1 μM. Inhibitor stock solutions were prepared in DMSO. Final concentration of DMSO was adjusted to 1% in all samples. The enzyme reaction was stopped by addition of 10% trichloroacetic acid (final concentration). Samples were centrifuged in a microtiter plate at 4000 rpm for 10 min. Supernatants were applied to reverse phase HPLC on a Waters Symmetry C18 column, equipped with a Waters Sentry Guard column. Isocratic HPLC runs were performed at RT at a flow rate of 1 ml/min of acetonitrile:water 48:52 as running solvent. Radioactivity was monitored in the eluate by a Packard Flow Scintillation Analyzer. Total radioactivity for estrone and estradiol were determined in each sample and percent conversion of estrone to estradiol was calculated according to the following formula:
Percent inhibition was calculated as follows: % inhibition=100−% conversion

As to `CCCc1cc2c(cc1O)CC[C@H]1[C@@H]3[C@H](CCCC(=O)N4CCOCC4)CC(=O)[C@@]3(C)CC[C@H]21` [Example 6, 3-Hydroxy-15β-(4-morpholin-4-yl-4-oxo-butyl)-2-propyl-estra-1,3,5(10)-trien-17-one], the inhibition at 0.1 µM stood at 37.9%.

Consider `C[C@]12CC[C@@H]3c4ccc(O)cc4CC[C@H]3[C@@H]1[C@H](CCCC(=O)N1CCOCC1)CC2(F)F` [Example 90], for which the inhibition at 0.1 µM is 63.5%.

Turning to `C[C@]12CC[C@@H]3c4ccc(O)cc4CC[C@H]3[C@@H]1[C@@H](CCCC(=O)N1CCOCC1)CC2(F)F` [Example 91, 4-(17,17-Difluoro-3-hydroxy-estra-1,3,5(10)-trien-15α-yl)-1-morpholin-4-yl-butan-1-one], the inhibition at 0.1 µM stood at 32%.

For the compound `Cc1cnc(NC(=O)CC[C@@H]2CC(F)(F)[C@@]3(C)CC[C@@H]4c5ccc(O)cc5CC[C@H]4[C@H]23)s1` [Example 93, 3-(17,17-Difluoro-3-hydroxy-estra-1,3,5(10)-trien-15β-yl)-N-(5-methyl-thiazol-2-yl)-propionamide], the inhibition at 0.1 µM turned out to be 59.5%.

For the compound `C[C@]12CC[C@@H]3c4ccc(O)cc4CC[C@H]3[C@@H]1[C@H](CCCC(=O)N1CCOCC1)c1cn[nH]c12` [Example 162, 3-Hydroxy-15β-(4-morpholin-4-yl-4-oxo-butyl)-estra-1,3,5(10)-trien-[16,17-c]-pyrazole], the inhibition at 1 µM came to 93% and the inhibition at 0.1 µM is 63%.

On to `C[C@]12CC[C@@H]3c4ccc(OS(N)(=O)=O)cc4CC[C@H]3[C@@H]1[C@H](CCCC(=O)N1CCOCC1)CC2=O` [Example 163, 3-Sulphamate-15β-(4-morpholin-4-yl-4-oxo-butyl)-estra-1,3,5(10)-trien-17-one], for which the inhibition at 1 µM amounted to 43% and the inhibition at 0.1 µM is 10%.

As to `C[C@]12CC[C@@H]3c4ccc(OS(=O)(=O)O)cc4CC[C@H]3[C@@H]1[C@H](CCCC(=O)N1CCOCC1)CC2=O` [Example 164, 3-Sulphate-15β-(4-morpholin-4-yl-4-oxo-butyl)-estra-1,3,5(10)-trien-17-one], the inhibition at 1 µM was 27% and the inhibition at 0.1 µM was found to be 3%.
